Key:
[1] = Kamei et al, J. Antibiotics vol XLIII No. 8, 1018-1020; cited from earlier work
AR 1.0 cells [2] = assay: Drug accumulation assay (tritiated daunorubicin, AR 1.0 cells); assay type: cell-based, mouse; details: Mus musculus, 1 h, daunorubicin accumulation, 37° C., DNR 2 μM
Experimental: (§1) The EMT6 mouse mammary carcinoma cell line and the MDR resistant subline AR 1.0 were cultured in RPMI 1640 medium containing 10% foetal calf serum and 2mM glutamine at 37° C. in 5% CO2. Cells were passaged between 1 in 200 and 1 in 2000 in the case of the parental cell line and between 1 in 20 and 1 in 200 in the case of the MDR resistant subline, after trypsinisation (0.25% trypsin, 0.2 gl^-1, EDTA).
1. Drug accumulation assay
AR 1.0 cells were seeded into 96 well opaque culture plates (Canberra Packard). The assay medium contained a mixture of tritiated Daunorubicin (DNR), a cytotoxic agent, and unlabelled DNR (0.25μ Ci/ml; 2 μM). Compounds of formula A were serially diluted in assay medium over a range of concentrations from 100 nM to 100 μM. The cells were incubated at 37° C. for 1 hr before washing and counting of cell associated radioactivity. Each assay included a titration of the known resistance modifying agent Verapamil as positive control. Results were expressed as % maximum accumulation where 100% accumulation is that observed in the presence of 100 μM Verapamil.

AR 1.0 cells [3] = assay: Potentiation of Doxorubicin toxicity (potentiation index, AR 1.0 cells); assay type: cell-based, mouse; details: Conc Comp 5 μM; doxorubicin 0.5 nM-50 μM, four days
Experimental: as §1
2. Potentiation of Doxorubicin toxicity
Compounds of formula A were examined for their ability to potentiate the toxicity of doxorubicin in AR 1.0 cells. In initial proliferation assays compounds were titrated against a fixed concentration of doxorubicin (0.5-1 μM) which alone is non-toxic to AR 1.0 cells. Incubations with doxorubicin were over a four day period before quantitation of proliferation using the calorimetric sulphorhodamine B assay (Skehan et al; J. Natl. Cancer Inst. 82 pp 1107-1112 (1990)).
Cells were cultured for four days with concentrations of doxorubicin over the range of 0.5 nM-50 μM in the presence of Verapramil at its maximum subtoxic level determined from previous experiments. Proliferation was quantified as described by Skehan et al, loc cit. The IC50 (concentration required to reduce proliferation to 50% of the untreated controls) for doxorubicin alone and with the Verapamil were derived and used to calculate the potentiation index (PI): […]

AR 1.0 cells [4] = assay: Proliferation/toxicity assay, compound alone and with cytotoxic agent (sulphorhodamine B); assay type: cell-based, mouse
MDR cells = details: in vitro and in vivo; Cancer Res., 41, 1967-1972 (1981); cited from earlier work
[5] = Mus musculus, compound alone, read-out: COMPOUND TOXICITY (IC50 μM)

Row | SMILES | potentiation of the cytotoxicity of vincristine [1] | IC50 (AR 1.0 cells [2]) | Potentiation Index (at 5 μM) (AR 1.0 cells [3]) | IC50 (AR 1.0 cells [4]; [5]) | IC50 (AR 1.0 cells [4]; cytotoxic agent (doxorubicin) 0.50 μg/ml, 5760 min, read-out: TOXICITY WITH CYTOTOXIC AGENT (IC 50 μM)) | sensitisation of MDR cells to vinca alkaloids (MDR cells)
1 | O=c1[nH]/c(=C\c2ccccc2)c(=O)[nH]/c1=C\c1ccccc1 [B] | have utility as potentiators of the cytotoxicity of vincristine |  |  |  |  | 
2 | Cn1c(=O)/c(=C/c2cn(C(=O)OCc3ccccc3)c3ccccc23)n(C)c(=O)/c1=C/c1ccccc1 [Compound 1940, (3Z,6Z)-3-Benzylidene-6-(1-benzyloxycarbonyl-3-indolyl)methylene-1,4-dimethyl-2,5-piperazinedione] |  | 10 µM | 14 | 7 µM |  | 
3 | Cn1c(=O)/c(=C/c2cn(CCCN3C(=O)c4ccccc4C3=O)c3ccccc23)n(C)c(=O)/c1=C/c1ccccc1 [Compound 1943, (3Z,6Z)-3-Benzylidene-1,4-dimethyl-6-(3-(1-(3-phthalimido)propyl)indolyl)methylene-2,5-piperazinedione] |  | 10 µM | 20 | 60 µM | 0.2 µM | 
4 | COc1ccc(CCN(C)CCCC(C#N)(c2ccc(OC)c(OC)c2)C(C)C)cc1OC (stereo not drawn) [Verapamil] |  |  |  |  |  | shown to sensitise MDR cells to vinca alkaloids in vitro and in vivo
